PMC4094369 (Biochemical and biophysical research communications, 2013)
“And” between values parts separate entries of the source, which are not always exact repeats. Equal entries are not always repeated. “Also recorded” adds a separate entry of the source. Structures can show the parent of a compound that is named as a salt. Where two headings read alike, the source gives them in different places.

Key:
[1] = biological target: T1, glutaminase (Homo sapiens, UniProt O94925); assay: Glutaminase activity of analogs; type: biochemical; conditions: for retention of biological (glutaminase) activity: analogs of chelerythrine, in words
T1 sequence (O94925 124-669 limits assumed): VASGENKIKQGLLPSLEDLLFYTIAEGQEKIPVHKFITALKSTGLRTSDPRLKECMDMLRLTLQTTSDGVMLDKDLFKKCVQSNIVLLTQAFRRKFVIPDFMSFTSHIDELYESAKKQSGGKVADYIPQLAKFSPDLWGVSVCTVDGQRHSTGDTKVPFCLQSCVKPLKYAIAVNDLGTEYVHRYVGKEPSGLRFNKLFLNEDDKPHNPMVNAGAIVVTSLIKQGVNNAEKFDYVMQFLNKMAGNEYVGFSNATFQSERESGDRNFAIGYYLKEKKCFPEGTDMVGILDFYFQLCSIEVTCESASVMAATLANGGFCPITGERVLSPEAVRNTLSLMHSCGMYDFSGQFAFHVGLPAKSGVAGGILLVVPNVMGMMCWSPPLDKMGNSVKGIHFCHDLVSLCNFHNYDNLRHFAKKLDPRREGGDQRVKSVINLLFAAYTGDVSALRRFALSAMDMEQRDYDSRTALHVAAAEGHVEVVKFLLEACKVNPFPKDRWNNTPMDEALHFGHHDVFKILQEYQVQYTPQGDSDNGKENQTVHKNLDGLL

[2] = biological target: T2, glutaminase (hKGAΔ1) (Homo sapiens, UniProt O94925); type: biochemical; conditions: for Ki: Ki (competition studies), presence of glutamine; for Mode of inhibition: competition studies, average of 2–4 determinations
T2 sequence (O94925 124-669 limits assumed): T1 sequence (O94925 124-669 limits assumed)

[3] = biological target: T3, mouse c-type glutaminase (mGAC) (Mus musculus, UniProt D3Z7P3); assay: Glutaminase activity, Amplex UltraRed fluorescent assay; type: biochemical
T3 sequence (D3Z7P3 55-603 isoform D3Z7P3-2 limits assumed): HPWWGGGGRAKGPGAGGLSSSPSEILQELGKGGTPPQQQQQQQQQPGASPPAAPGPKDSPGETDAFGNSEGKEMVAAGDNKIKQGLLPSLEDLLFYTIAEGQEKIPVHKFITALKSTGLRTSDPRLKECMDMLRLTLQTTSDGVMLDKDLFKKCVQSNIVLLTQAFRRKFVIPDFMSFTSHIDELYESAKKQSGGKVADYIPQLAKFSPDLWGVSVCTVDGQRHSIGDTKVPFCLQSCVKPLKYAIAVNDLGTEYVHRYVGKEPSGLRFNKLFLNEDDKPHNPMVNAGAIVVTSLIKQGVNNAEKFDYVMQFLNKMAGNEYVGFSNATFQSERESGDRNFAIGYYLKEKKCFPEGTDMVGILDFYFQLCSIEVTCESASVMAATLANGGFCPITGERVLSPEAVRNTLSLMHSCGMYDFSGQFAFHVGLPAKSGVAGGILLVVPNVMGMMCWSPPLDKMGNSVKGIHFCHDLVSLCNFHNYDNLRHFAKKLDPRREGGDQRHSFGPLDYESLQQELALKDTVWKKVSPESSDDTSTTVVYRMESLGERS

[4] = biological target: T4, mouse liver glutaminase (mLGA) (Mus musculus, UniProt Q571F8); assay: as above; type: biochemical; conditions: for activity against GLS2 (mLGA) relative to GLS1 isoforms: fold less activity against GLS2 than GLS1 (hKGAΔ1, mGAC)
T4 sequence (Q571F8 15-602): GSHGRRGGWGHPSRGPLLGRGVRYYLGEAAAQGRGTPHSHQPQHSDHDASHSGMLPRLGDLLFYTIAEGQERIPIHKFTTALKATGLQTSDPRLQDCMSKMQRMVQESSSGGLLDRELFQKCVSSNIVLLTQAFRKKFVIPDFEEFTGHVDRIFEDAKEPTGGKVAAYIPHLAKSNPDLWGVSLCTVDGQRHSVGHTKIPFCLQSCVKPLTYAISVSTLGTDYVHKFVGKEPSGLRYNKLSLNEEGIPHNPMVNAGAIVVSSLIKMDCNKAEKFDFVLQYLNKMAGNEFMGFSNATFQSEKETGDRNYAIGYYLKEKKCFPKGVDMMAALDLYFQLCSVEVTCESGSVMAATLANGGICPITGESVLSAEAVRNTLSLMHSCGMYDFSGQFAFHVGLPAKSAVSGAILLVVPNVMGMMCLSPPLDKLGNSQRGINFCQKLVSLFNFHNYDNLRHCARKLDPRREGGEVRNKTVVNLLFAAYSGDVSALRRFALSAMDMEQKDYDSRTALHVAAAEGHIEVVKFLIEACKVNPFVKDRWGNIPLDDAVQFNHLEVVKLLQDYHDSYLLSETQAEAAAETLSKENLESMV

[5] = Solubility; type: physicochemical; conditions: in words, no data shown
[6] = biological target: T2, glutaminase (hKGAΔ1); assay: Inactivation studies: time-dependent inhibition of glutaminase; type: biochemical; conditions: for KI (inactivation): read-out: Ki (inactivation studies); for time- and concentration-dependence of glutaminase inactivation: in words
[7] = in vivo; cited from earlier work
[8] = biological target: T5, hKGAΔ1 (GLS1) (Homo sapiens, UniProt O94925); assay: Glutaminase activity, Amplex UltraRed fluorescent assay; type: biochemical
T5 sequence (O94925 124-669 limits assumed): T1 sequence (O94925 124-669 limits assumed)

[9] = read-out: Avg. IC50, Table 6, analogs of apomorphine

Compound: O=C1c2ccccc2CN1c1ccccc1 [2-Phenyl isoindolin-1-one]
- IC50 [1]: > 100000 nM

Compound: O=c1c2ccccc2on1-c1ccccc1 [2-Phenylbenzo[d] isoxazol-3(2H)-one]
- IC50 [1]: 20000 nM

Compound: O=c1c2ccccc2sn1-c1ccccc1 [2-Phenylbenzo[d]isothiazol-3(2H)-one]
- IC50 [1]: 20 nM

Compound: CN1CCc2cccc3c2C1Cc1ccc(O)c(O)c1-3 (stereo not shown) [Apomorphine hydrochloride, 5,6,6a,7-tetrahydro-6-methyl-4H-dibenzo[de,g] quinoline-10,11-diol]
- IC50 [1]: 600 nM
- Ki [2]: 2000 nM
- Mode of inhibition [2]: Competitive
- Mode of inhibition ([2]; listed as apomorphine): competitive inhibition
- IC50 [3]: 1000 nM
- IC50 [4]: 300 nM
- solubility relative to BPTES [5]: more soluble than BPTES
- kinact/KI [6]: 13200 M⁻¹ s⁻¹
- kinact ([6]; rate constant of inactivation): 5.56e-05 s⁻¹
- KI (inactivation) [6]: 4 nM

Compound: O=C(Cc1ccccc1)Nc1nnc(CCSCCc2nnc(NC(=O)Cc3ccccc3)s2)s1 [BPTES, bis-2-(5-phenylacetimido-1,2,4-thiadiazol-2-yl)ethyl sulfide]
- bioavailability [7]: low bioavailability

Compound: COc1ccc2cc3[n+](cc2c1OC)CCc1cc2c(cc1-3)OCO2 [Berberine chloride, 5,6-dihydro-9,10-dimethoxy-benzo[g]-[1,3] benzodioxolo[5,6-a]quinolizinium]
- IC50 [1]: > 100000 nM
- retention of biological (glutaminase) activity [1]: did not maintain activity

Compound: COc1ccc2c(c[n+](C)c3c4cc5c(cc4ccc23)OCO5)c1OC [Chelerythrine chloride, 1,2-dimethoxy-N-methyl[1,3]benzodioxolo[5,6-c]phenanthridinium]
- IC50 [8]: 30 nM
- IC50 [1]: 30 nM
- Mode of inhibition [2]: Competitive
- Mode of inhibition ([2]; listed as chelerythrine): competitive inhibition
- IC50 [3]: 70 nM
- IC50 [4]: 300 nM
- activity against GLS2 (mLGA) relative to GLS1 isoforms [4]: 5 to 10 fold
- solubility relative to BPTES [5]: more soluble than BPTES
- kinact/KI [6]: 29200 M⁻¹ s⁻¹
- kinact ([6]; rate constant of inactivation): 0.000958 s⁻¹
- KI (inactivation) [6]: 30 nM

Compound: [N-]=[N+]=CC(=O)CC[C@H](N)C(=O)O [DON, 6-diazo-5-oxo-L-norleucine]
- Mode of inhibition [2]: Time-dependent
- kinact/KI [6]: 2.53 M⁻¹ s⁻¹
- time- and concentration-dependence of glutaminase inactivation [6]: both concentration and time of incubation dependent; also recorded: time-dependent and irreversible
- kinact ([6]; rate constant of inactivation): 1.39e-05 s⁻¹
- KI (inactivation) [6]: 6000 nM

Compound: O=c1c2ccccc2[se]n1-c1ccccc1 [Ebselen, 2-phenyl-1,2-benzisoselenazol-3[2H]-one]
- IC50 [8]: 8 nM
- Ki [2]: ~15 nM and 15 nM
- decrease in Vmax ([2]; as the concentration of inhibitor was increased): 6 fold
- Mode of inhibition [2]: Mixed non-competitive
- Mode of inhibition ([2]; listed as ebselen): mixed non-competitive inhibition
- IC50 [3]: 20 nM
- IC50 [4]: 100 nM
- activity against GLS2 (mLGA) relative to GLS1 isoforms [4]: 5 to 10 fold
- solubility relative to BPTES [5]: more soluble than BPTES
- kinact [6]: 0.000367 s⁻¹
- kinact/KI [6]: 25200 M⁻¹ s⁻¹
- time- and concentration-dependence of glutaminase inactivation [6]: dependent on both concentration and time of incubation
- kinact ([6]; rate constant of inactivation): 0.000364 s⁻¹
- KI (inactivation) [6]: ~14 nM and 14 nM

Compound: COc1cc2c[n+](C)c3c4cc5c(cc4ccc3c2cc1OC)OCO5 [Nitidine chloride, 2,3-dimethoxy-N-methyl[1,3]benzodioxolo[5,6-c]phenanthridinium]
- IC50 [1]: 9000 nM
- retention of biological (glutaminase) activity ([1]; listed as nitidine): retained
- retention of biological (glutaminase) activity ([1]; listed as nitidine chloride): retained biological activity

Compound: c1cc2c(cnc3c4cc5c(cc4ccc23)OCO5)c2c1OCO2 [Norsanguinarine chloride, [1,3]-benzodioxolo[5,6-c]-1,3-dioxolo[4,5-i]phenanthridine]
- IC50 [1]: > 100000 nM
- retention of biological (glutaminase) activity [1]: biological activity was lost

Compound: C[n+]1cc2c3c(ccc2c2ccc4cc5c(cc4c21)OCO5)OCO3 [Sanguinarine chloride, 13-methyl-[1,3]-benzodioxolo[5,6-c]-1,3-dioxolo[4,5-i]phenanthridinium]
- IC50 [1]: 100 nM
- retention of biological (glutaminase) activity ([1]; listed as sanguinarine): retained
- retention of biological (glutaminase) activity ([1]; listed as sanguinarine chloride): retained biological activity

Compound: CN1CCc2cccc3c2[C@@H]1Cc1ccc(O)c(O)c1-3 [S–Apomorphine hydrochloride]
- IC50 [1, 9]: 400 nM

Compound: R(−)-Apocodeine hydrochloride
- loss of activity relative to apomorphine ([1]; hydroxyl replaced with methoxy): 10 fold
- IC50 [1, 9]: 4000 nM

Compound: R(−)-Propylnorapomorphine hydrochloride
- IC50 [1, 9]: 900 nM
